Laboratory results taken from ChEMBL document CHEMBL1201862, “PubChem BioAssay data set” (2004).
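In this assay, cells in 96-well plates receive the compound at five concentrations for 48 hours. Endpoints are linearly interpolated between the surrounding concentrations. GI50 marks 50% less growth.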 Calls of active or inactive are those of the source. No stated cut-off is given here; in the data, active = GI50 up to about 1.1 µM and inactive = higher.

Experiments:
Test in all cases: NCI-60 cell line screen, 48 h
[1] = tested on: NCI-H23
[2] = tested on: MDA-MB-231
[3] = tested on: OVCAR-3
[4] = tested on: SK-MEL-28
[5] = tested on: PC-3
[6] = tested on: UACC-257
[7] = tested on: HCT-116
[8] = tested on: CCRF-CEM
[9] = tested on: SNB-75
[10] = tested on: HCC 2998
[11] = tested on: A549
[12] = tested on: SF-268
[13] = tested on: SW-620
[14] = tested on: HOP-62
[15] = tested on: SK-MEL-2
[16] = tested on: NCI-H460
[17] = tested on: OVCAR-8
[18] = tested on: SR
[19] = tested on: M14
[20] = tested on: DU-145
[21] = tested on: OVCAR-5
[22] = tested on: SK-MEL-5
[23] = tested on: ACHN
[24] = tested on: EKVX
[25] = tested on: A498
[26] = tested on: TK-10
[27] = tested on: CAKI-1
[28] = tested on: MDA-MB-435
[29] = tested on: SNB-19
[30] = tested on: MCF7
[31] = tested on: UO-31
[32] = tested on: SF-539
[33] = tested on: RXF 393
[34] = tested on: HCT-15
[35] = tested on: SF-295
[36] = tested on: LOX IMVI
[37] = tested on: UACC-62
[38] = tested on: HL-60
[39] = tested on: U-251
[40] = tested on: BT-549
[41] = tested on: NCI/ADR-RES
[42] = tested on: OVCAR-4
[43] = tested on: Hs-578T
[44] = tested on: HOP-92
[45] = tested on: NCI-H226
[46] = tested on: 786-0
[47] = tested on: HT-29
[48] = tested on: COLO 205
[49] = tested on: IGROV-1
[50] = tested on: MDA-N
[51] = tested on: SN12C
[52] = tested on: SK-OV-3
[53] = tested on: KM12
[54] = tested on: NCI-H522
[55] = tested on: Malme-3M
[56] = tested on: MOLT-4
[57] = tested on: K562

`CCCCCCCCCCCCCC[C@@H](O)[C@H]1CC[C@H]([C@H]2CC[C@H]([C@H](O)CCCCCC[C@@H](O)CC3=C[C@H](C)OC3=O)O2)O1` was tested, and the GI50 [1] was 1.2 µM (inactive), the GI50 [2] was > 25 µM (inactive) and the GI50 [3] was > 25 µM (inactive). For the same molecule, the GI50 [4] was > 25 µM (inactive), the GI50 [5] was > 25 µM (inactive) and the GI50 [6] was 3.65 µM (inactive). The GI50 [7] was 0.203 µM (active), the GI50 [8] was > 25 µM (inactive) and the GI50 [9] was > 25 µM (inactive). The GI50 [10] was > 25 µM (inactive), the GI50 [11] was > 25 µM (inactive) and the GI50 [12] was > 25 µM (inactive). The GI50 [13] was > 25 µM (inactive), the GI50 [14] was > 25 µM (inactive) and the GI50 [15] was > 25 µM (inactive). The GI50 [16] was 0.0552 µM (active), the GI50 [17] was 1.75 µM (inactive) and the GI50 [18] was 1.03 µM (active). For the same molecule, the GI50 [19] was > 25 µM (inactive), the GI50 [20] was 4.24 µM (inactive) and the GI50 [21] was > 25 µM (inactive). The GI50 [22] was 0.117 µM (active), the GI50 [23] was > 25 µM (inactive) and the GI50 [24] was > 7.52 µM (inactive). The GI50 [25] was > 12.5 µM (inactive), the GI50 [26] was > 25 µM (inactive) and the GI50 [27] was > 25 µM (inactive). For the same molecule, the GI50 [28] was > 25 µM (inactive), the GI50 [29] was > 25 µM (inactive) and the GI50 [30] was > 15.3 µM (inactive). For the same molecule, the GI50 [31] was > 25 µM (inactive), the GI50 [32] was > 13.8 µM (inactive) and the GI50 [33] was > 25 µM (inactive). The GI50 [34] was over 25 µM, the GI50 [35] was > 25 µM (inactive) and the GI50 [36] was 1.22 µM (inactive). For the same molecule, the GI50 [37] was 1.54 µM (inactive), the GI50 [38] was 2.22 µM (inactive) and the GI50 [39] was > 25 µM (inactive). For the same molecule, the GI50 [40] was > 25 µM (inactive), the GI50 [41] was > 20.1 µM (inactive) and the GI50 [42] was > 25 µM (inactive). For the same molecule, the GI50 [43] was 1.63 µM (inactive), the GI50 [44] was 3.34 µM (inactive) and the GI50 [45] was > 25 µM (inactive). The GI50 [46] was > 25 µM (inactive), the GI50 [47] was 1.7 µM (inactive) and the GI50 [48] was > 25 µM (inactive). The GI50 [49] was > 25 µM (inactive), the GI50 [50] was 2.03 µM (inactive) and the GI50 [51] was 2.2 µM (inactive). For the same molecule, the GI50 [52] was > 25 µM (inactive), the GI50 [53] was > 25 µM (inactive) and the GI50 [54] was 8.93 µM (inactive). The GI50 [55] was > 25 µM (inactive).

In the case of `Cc1nc2ccc(Br)cc2c(=O)n1-c1ccc(N)cc1`, the GI50 [2] is reported as > 100 µM (inactive), the GI50 [3] is reported as > 100 µM (inactive) and the GI50 [4] is reported as > 100 µM (inactive). For the same molecule, the GI50 [5] was > 100 µM (inactive), the GI50 [6] was > 100 µM (inactive) and the GI50 [7] was > 100 µM (inactive). The GI50 [8] was > 100 µM (inactive), the GI50 [9] was 17.2 µM (inactive) and the GI50 [10] was > 100 µM (inactive). The GI50 [11] was > 100 µM (inactive), the GI50 [12] was > 100 µM (inactive) and the GI50 [13] was > 100 µM (inactive). For the same molecule, the GI50 [56] was > 100 µM (inactive), the GI50 [14] was > 100 µM (inactive) and the GI50 [15] was > 100 µM (inactive). The GI50 [16] was > 100 µM (inactive), the GI50 [17] was > 100 µM (inactive) and the GI50 [18] was > 100 µM (inactive). The GI50 [19] was > 100 µM (inactive), the GI50 [57] was > 100 µM (inactive) and the GI50 [20] was > 100 µM (inactive). For the same molecule, the GI50 [21] was > 100 µM (inactive), the GI50 [22] was > 100 µM (inactive) and the GI50 [23] was > 100 µM (inactive). For the same molecule, the GI50 [24] was > 100 µM (inactive), the GI50 [25] was > 100 µM (inactive) and the GI50 [26] was > 100 µM (inactive). For the same molecule, the GI50 [27] was > 100 µM (inactive), the GI50 [28] was > 100 µM (inactive) and the GI50 [29] was > 100 µM (inactive). The GI50 [30] was > 100 µM (inactive), the GI50 [31] was 84.5 µM (inactive) and the GI50 [32] was > 100 µM (inactive). The GI50 [33] was 28.1 µM (inactive), the GI50 [34] was over 100 µM and the GI50 [35] was > 100 µM (inactive). For the same molecule, the GI50 [36] was > 100 µM (inactive), the GI50 [37] was > 100 µM (inactive) and the GI50 [38] was > 100 µM (inactive). For the same molecule, the GI50 [40] was 99.5 µM (inactive), the GI50 [41] was > 100 µM (inactive) and the GI50 [42] was > 100 µM (inactive). For the same molecule, the GI50 [43] was > 100 µM (inactive), the GI50 [44] was > 100 µM (inactive) and the GI50 [45] was > 100 µM (inactive). For the same molecule, the GI50 [46] was > 100 µM (inactive), the GI50 [47] was > 100 µM (inactive) and the GI50 [48] was > 100 µM (inactive). The GI50 [49] was > 100 µM (inactive), the GI50 [50] was > 100 µM (inactive) and the GI50 [51] was > 100 µM (inactive). For the same molecule, the GI50 [52] was > 100 µM (inactive), the GI50 [53] was > 100 µM (inactive) and the GI50 [55] was > 100 µM (inactive).
